The text below walks through data of patent US20220313701A1, “MODULATORS OF TREX1” (Constellation Pharmaceuticals, Inc., priority 2019, published 2022).

One assay addresses T1, full length human TREX1 (Homo sapiens, UniProt Q9NSU2).
T1 construct: N-terminally His-Tev tagged full length human TREX1; His-Tev (His tag with TEV site) (N); made in house; host or cells: E. coli
T1 sequence (Q9NSU2 1-314): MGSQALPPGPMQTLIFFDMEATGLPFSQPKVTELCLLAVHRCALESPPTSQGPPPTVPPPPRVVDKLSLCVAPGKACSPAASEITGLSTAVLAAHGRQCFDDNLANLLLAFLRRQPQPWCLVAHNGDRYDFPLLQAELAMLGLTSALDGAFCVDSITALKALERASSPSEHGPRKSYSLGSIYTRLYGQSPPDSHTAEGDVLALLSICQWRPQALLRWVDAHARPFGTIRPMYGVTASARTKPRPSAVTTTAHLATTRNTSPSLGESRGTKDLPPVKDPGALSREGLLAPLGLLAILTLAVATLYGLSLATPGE
Description: TREX1 Biochemical Assay (fluorescence assay, degradation of dsDNA substrate). The conditions noted are these: 150 pM TREX1, 60 nM dsDNA substrate, 25 minutes at room temperature. The method in brief: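 N-terminally His-Tev-tagged enzyme expressed in E. coli, 150 pM, with 60 nM dual-labelled dsDNA (TEX615/quencher) in pH 7.4 Tris buffer with MgCl2, 1% DMSO; 10-point dose-response, 25 min at room temperature, then EDTA quench. Fluorescence at 615 nm (excitation 570 nm); IC50 from four-parameter fit against pre-quenched and no-inhibitor controls.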

The target of assay [1] is T2, human TREX2 (residues M44-A279) (Homo sapiens, UniProt Q9BQ50).
T2 construct: human TREX2 (residues M44-A279, expressed in E. coli); His-Tev (His tag with TEV site) (N); made in house; host or cells: E. coli
T2 sequence (Q9BQ50 44-279 isoform Q9BQ50-1): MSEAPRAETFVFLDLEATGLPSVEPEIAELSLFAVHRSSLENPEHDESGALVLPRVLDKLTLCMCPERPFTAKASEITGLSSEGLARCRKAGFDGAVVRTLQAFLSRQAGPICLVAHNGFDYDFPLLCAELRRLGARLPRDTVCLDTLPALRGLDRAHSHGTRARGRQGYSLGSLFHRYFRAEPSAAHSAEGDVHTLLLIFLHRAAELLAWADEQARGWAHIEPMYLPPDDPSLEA
Description: TREX2 Biochemical Assay (fluorescence assay, degradation of dsDNA substrate). The note with it: 2.5 nM TREX2, 60 nM dsDNA substrate, 25 minutes at room temperature. In a few lines:
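Final conditions: 2.5 nM His-Tev-tagged TREX2 (E. coli-expressed), 60 nM fluorophore/quencher-labelled dsDNA, 50 mM Tris pH 7.4, 150 mM NaCl, 100 mM MgCl2, 1% DMSO; 10-point compound dose-response. Incubated 25 min at room temperature, then EDTA-quenched; fluorescence read at ex 570/em 615 nm. IC50 from four-parameter fit against pre-quenched and no-inhibitor controls.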

`O=C(NCc1ccncc1)c1cncc(N2CCC(O)(c3ccc(F)cc3)CC2)n1` [Example 65, 6-(4-(4-fluorophenyl)-4-hydroxypiperidin-1-yl)-N-(pyridin-4-ylmethyl)pyrazine-2-carboxamide]: the figures for the 50% inhibitory concentration (IC50) (on full length human TREX1; in assay [1]) were over 10 µM and over 100 µM, respectively.
In the same order, the values of `O=C(NCc1ccccn1)c1cncc(N2CCC(O)(c3ccc(F)cc3)CC2)n1` [Example 66, 6-(4-(4-fluorophenyl)-4-hydroxypiperidin-1-yl)-N-(pyridin-2-ylmethyl)pyrazine-2-carboxamide] are over 10 µM and over 100 µM.
Take `CN1CCN(C(=O)c2cncc(N3CCC(O)(c4ccc(F)cc4)CC3)n2)CC1` [Example 67, (6-(4-(4-fluorophenyl)-4-hydroxypiperidin-1-yl)pyrazin-2-yl)(4-methylpiperazin-1-yl)methanone]: the IC50 on full length human TREX1 was over 10 µM; in assay [1], over 100 µM.
The corresponding values for `O=C(NCCc1ccccn1)c1cncc(N2CCC(O)(c3ccc(F)cc3)CC2)n1` [Example 68, 6-(4-(4-fluorophenyl)-4-hydroxypiperidin-1-yl)-N-(2-(pyridin-2-yl)ethyl)pyrazine-2-carboxamide] are 1 to 10 µM and over 100 µM.
In the same order, the values of `COCCNC(=O)c1cncc(N2CCC(O)(c3ccc(F)cc3)CC2)n1` [Example 69, 6-(4-(4-fluorophenyl)-4-hydroxypiperidin-1-yl)-N-(2-methoxyethyl)pyrazine-2-carboxamide] are over 10 µM and over 100 µM.
For `CN(C)CCCNC(=O)c1cncc(N2CCC(O)(c3ccc(F)cc3)CC2)n1` [Example 70, N-(3-(dimethylamino)propyl)-6-(4-(4-fluorophenyl)-4-hydroxypiperidin-1-yl)pyrazine-2-carboxamide], the IC50 on full length human TREX1 is over 10 µM; in assay [1], over 100 µM.
As to `O=C(NCC(O)c1ccccc1)c1cncc(N2CCC(O)(c3ccc(F)cc3)CC2)n1` (stereo not shown) [Example 71, 6-(4-(4-fluorophenyl)-4-hydroxypiperidin-1-yl)-N-(2-hydroxy-2-phenylethyl)pyrazine-2-carboxamide], the values for the IC50 (at full length human TREX1; in assay [1]) were 1 to 10 µM and over 100 µM, respectively.
The corresponding values for `Cc1cnn(-c2cncc(N3CCC(O)(c4ccc(F)cc4)CC3)n2)c1` [Example 72, 4-(4-fluorophenyl)-1-(6-(4-methyl-1H-pyrazol-1-yl)pyrazin-2-yl)piperidin-4-ol] are 1 to 10 µM and over 100 µM.
With `OC1(c2ccccc2)CCN(c2cncc(-n3cccn3)n2)CC1` [Example 73, 1-(6-(1H-pyrazol-1-yl)pyrazin-2-yl)-4-phenylpiperidin-4-ol], the IC50 is over 10 µM against full length human TREX1 and over 100 µM in assay [1].
The corresponding values for `OC1(c2ccccn2)CCN(c2cncc(-n3cccn3)n2)CC1` [Example 74, 1-(6-(1H-pyrazol-1-yl)pyrazin-2-yl)-4-(pyridin-2-yl)piperidin-4-ol] are over 10 µM and over 100 µM.
For `OC1(c2cccnc2)CCN(c2cncc(-n3cccn3)n2)CC1` [Example 75, 1-(6-(1H-pyrazol-1-yl)pyrazin-2-yl)-4-(pyridin-3-yl)piperidin-4-ol], the IC50 at full length human TREX1 was over 10 µM; in assay [1], over 100 µM.
In the case of `OC1(c2ccncc2)CCN(c2cncc(-n3cccn3)n2)CC1` [Example 76, 1-(6-(1H-pyrazol-1-yl)pyrazin-2-yl)-4-(pyridin-4-yl)piperidin-4-ol], the figures for the IC50 (at full length human TREX1; in assay [1]) were over 10 µM and over 100 µM, respectively.
On to `OC1(c2ccc(F)cc2)CCN(c2cncc(N3CCCC3)n2)CC1` [Example 78, 4-(4-fluorophenyl)-1-(6-(pyrrolidin-1-yl)pyrazin-2-yl)piperidin-4-ol], for which the IC50 against full length human TREX1 is over 10 µM; in assay [1], over 100 µM.
The corresponding values for `OC1(c2ccc(F)cc2)CCN(c2cccc(-n3cccn3)n2)CC1` [Example 79, 1-(6-(1H-pyrazol-1-yl)pyridin-2-yl)-4-(4-fluorophenyl)piperidin-4-ol] are 1 to 10 µM and over 100 µM.
As to `OC1(c2ccc(F)cc2)CCN(c2nccc(-n3cccn3)n2)CC1` [Example 80, 1-(4-(1H-pyrazol-1-yl)pyrimidin-2-yl)-4-(4-fluorophenyl)piperidin-4-ol], the values for the IC50 (at full length human TREX1; in assay [1]) were 1 to 10 µM and over 100 µM, respectively.
Take `OC1(c2ccc(F)cc2)CCN(c2ccc3nccn3n2)CC1` [Example 81, 4-(4-fluorophenyl)-1-(imidazo[1,2-b]pyridazin-6-yl)piperidin-4-ol]: the figures for the IC50 (against full length human TREX1; in assay [1]) were 1 to 10 µM and over 100 µM, respectively.
Consider `OC1(c2ccc(F)cc2)CCN(c2cnc3ccccc3n2)CC1` [Example 82, 4-(4-fluorophenyl)-1-(quinoxalin-2-yl)piperidin-4-ol], for which the IC50 at full length human TREX1 was 1 to 10 µM; in assay [1], over 100 µM.
In the same order, the values of `OC1(c2ccc(F)cc2)CCN(c2ccc3ccccc3n2)CC1` [Example 83, 4-(4-fluorophenyl)-1-(quinolin-2-yl)piperidin-4-ol] are over 10 µM and over 100 µM.
In the same order, the values of `OC1(c2ccc(F)cc2)CCN(c2cncc(Cl)n2)CC1` [Example 84, 1-(6-chloropyrazin-2-yl)-4-(4-fluorophenyl)piperidin-4-ol] are 1 to 10 µM and over 100 µM.
The corresponding values for `COc1cc(N2CCC(O)(c3ccc(F)cc3)CC2)ncn1` [Example 85, 4-(4-fluorophenyl)-1-(6-methoxypyrimidin-4-yl)piperidin-4-ol] are 1 to 10 µM and over 100 µM.
With `OC1(c2ccc(F)cc2)CCN(c2ccccn2)CC1` [Example 86, 4-(4-fluorophenyl)-1-(pyridin-2-yl)piperidin-4-ol], the values for the IC50 (on full length human TREX1; in assay [1]) were over 10 µM and over 100 µM, respectively.
In the same order, the values of `Cc1nn(C)cc1-c1cc(N2CCC(O)(c3ccc(F)c(F)c3)CC2)cnn1` [Example 87, 4-(3,4-difluorophenyl)-1-(6-(1,3-dimethyl-1H-pyrazol-4-yl)pyridazin-4-yl)piperidin-4-ol] are 1 to 10 µM and over 100 µM.
In the same order, the values of `Cc1nn(C)cc1-c1cnnc(N2CCC(O)(c3ccc(F)c(F)c3)CC2)c1` [Example 88, 4-(3,4-difluorophenyl)-1-(5-(1,3-dimethyl-1H-pyrazol-4-yl)pyridazin-3-yl)piperidin-4-ol] are 0.1 to 1 µM and over 100 µM.
In the same order, the values of `Cc1ncc(-c2cnn(C)c2)nc1N1CCC(O)(c2ccc(F)c(F)c2)CC1` [Example 89, 4-(3,4-difluorophenyl)-1-(3-methyl-6-(1-methyl-1H-pyrazol-4-yl)pyrazin-2-yl)piperidin-4-ol] are 1 to 10 µM and over 100 µM.
In the case of `Cc1ncc(N2CCC(O)(c3ccc(F)c(F)c3)CC2)nc1-c1cnn(C)c1` [Example 90, 4-(3,4-difluorophenyl)-1-(5-methyl-6-(1-methyl-1H-pyrazol-4-yl)pyrazin-2-yl)piperidin-4-ol], the IC50 on full length human TREX1 was 0.1 to 1 µM; in assay [1], over 100 µM.
The corresponding values for `Cc1nc(-c2cn(C)nc2C)c(F)c(N2CCC(O)(c3ccc(F)c(F)c3)CC2)n1` [Example 91, 4-(3,4-difluorophenyl)-1-(6-(1,3-dimethyl-1H-pyrazol-4-yl)-5-fluoro-2-methylpyrimidin-4-yl)piperidin-4-ol] are 0.1 to 1 µM and over 100 µM.
The corresponding values for `Cc1cc(C2(O)CCN(c3cncc(-c4cn(C)nc4C)n3)CC2)ccc1F` [Example 92, 1-(6-(1,3-dimethyl-1H-pyrazol-4-yl)pyrazin-2-yl)-4-(4-fluoro-3-methylphenyl)piperidin-4-ol] are 0.1 to 1 µM and over 100 µM.
As to `Cc1nn(C)cc1-c1cc(C(N)=O)cc(N2CCC(O)(c3cc(F)c(F)c(F)c3)CC2)n1` [Example 93, 2-(1,3-dimethyl-1H-pyrazol-4-yl)-6-(4-hydroxy-4-(3,4,5-trifluorophenyl)piperidin-1-yl)isonicotinamide], the IC50 against full length human TREX1 was 0.1 to 1 µM; in assay [1], over 100 µM.
The corresponding values for `Cc1nn(C)cc1-c1cc(C(N)=O)cc(N2CCC(O)(c3ccc(F)c(Cl)c3)CC2)n1` [Example 94, 2-(4-(3-chloro-4-fluorophenyl)-4-hydroxypiperidin-1-yl)-6-(1,3-dimethyl-1H-pyrazol-4-yl)isonicotinamide] are 0.1 to 1 µM and over 100 µM.

As usually defined, the IC50 is the concentration that inhibits the measured activity by half. Read a high IC50 as weaker potency.
